From patent publication US20240270762A1, “PENICILLIN-BINDING PROTEIN INHIBITORS” (priority 2021, published 2024)
≈ marks a conversion by molar mass, not a printed value.

How the values were obtained:
[1] = test system: P. aeruginosa ATCC 35151; experiment: microbe, parasite or virus in culture; format: cell-based; details: Pseudomonas aeruginosa, ATCC35151, read-out: MIC P. aeruginosa ATCC 35151
[2] = test system: E. coli AG100A; experiment: Broth microdilution MIC in CAMHB; format: cell-based; details: Escherichia coli, read-out: MIC E. coli AG100A
[3] = test system: P. aeruginosa (ΔmexAB-oprM); experiment: Broth microdilution MIC in CAMHB; format: cell-based; details: Pseudomonas aeruginosa; read-out: MIC P. aeruginosa ΔmexAB-oprM
[4] = test system: K. pneumoniae SI-117; experiment: microbe, parasite or virus in culture; format: cell-based; details: Klebsiella pneumoniae, SI117, read-out: MIC K. pneumoniae SI-117
[5] = molecular target: T1, PBP3 from Pseudomonas aeruginosa (PAO1) (Pseudomonas aeruginosa, UniProt G3XD46); experiment: Bocillin-FL fluorescence polarization competition binding, P. aeruginosa PBP3; details: Binding affinity to P. aeruginosa PBP3; fluorescence polarization competition binding assay using Bocillin-FL; read-out: P. aeruginosa PBP3 Potency
T1 construct: made in house
T1 sequence (G3XD46 whole entry): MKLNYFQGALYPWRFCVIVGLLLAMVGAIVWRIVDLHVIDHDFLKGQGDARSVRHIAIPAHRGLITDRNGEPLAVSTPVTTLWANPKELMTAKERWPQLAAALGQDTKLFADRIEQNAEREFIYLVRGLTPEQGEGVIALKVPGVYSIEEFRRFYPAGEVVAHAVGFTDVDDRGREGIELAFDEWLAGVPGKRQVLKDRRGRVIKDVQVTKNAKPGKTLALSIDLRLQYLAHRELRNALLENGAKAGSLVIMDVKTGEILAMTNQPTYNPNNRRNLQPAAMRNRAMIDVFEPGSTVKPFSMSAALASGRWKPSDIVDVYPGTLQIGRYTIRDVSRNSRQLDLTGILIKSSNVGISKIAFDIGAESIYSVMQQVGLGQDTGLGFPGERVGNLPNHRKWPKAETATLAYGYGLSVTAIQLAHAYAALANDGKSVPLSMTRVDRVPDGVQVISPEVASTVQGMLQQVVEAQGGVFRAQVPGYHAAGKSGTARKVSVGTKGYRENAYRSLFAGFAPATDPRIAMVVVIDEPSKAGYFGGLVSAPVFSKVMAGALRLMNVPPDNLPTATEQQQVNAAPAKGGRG
Description: (§1) To determine the ability of boronic acid-based test PBP inhibitors to bind Penicillin Binding Proteins (PBPs), Bocillin-FL (fluorescently-labeled penicillin V; ThermoFisher Scientific) was used in a fluorescence polarization (FP) competition binding assay to assess inhibitor binding to PBP3 from Escherichia coli (K-12), PBP3 from Pseudomonas aeruginosa (PAO1), PBP1a and PBP3 from Acinetobacter baumannii (ATCC 19606), and PBP2 from Neisseria gonorrhoeae (FA19). PBPs were cloned and purified as described previously (E. coli PBP3, King, D. T, et al., ACS Infectious Diseases 2015, 1, 175-184; P. aeruginosa PBP3, Han et. al., PNAS 2010, 107 (51), 22002-22007; A. baumannii PBPs, Penwell et. al., Antimicrob. Agents Chemother. 2015, 59 (3), 1680-1689; N. gonorrhoeae PBP2, Singh et. al., J. Biol. Chem. 2019, 294 (38), 14020-14032). To establish assay conditions for competition binding, enzyme titration/saturation binding experiments were initially performed. Bocillin-FL was prepared at 0.2 μM in a buffer comprised of 50 mM Hepes (pH 8.0), 300 mM NaCl and 10% (v/v) glycerol for reactions with E. coli, P. aeruginosa and N. gonorrhoeae PBPs, and 25 mM Tris (pH 8.0), 200 mM NaCl, 10% (v/v) glycerol and 0.005% (v/v) Tween 20 for reactions with A. baumannii PBPs. Saturation binding was performed by mixing 40 μl of PBP solutions ranging in concentrations from 0-24 μM with 40 μl of the 0.2 μM Bocillin-FL solution, in individual wells of a black 384-well microplate. FP was measured immediately upon mixing (Excitation, 490 nm; Emission, 520 nm; g-factor, 0.96), using a Cytation3 (BioTek) microplate reader and measured continuously for up to 120 minutes. The FP response stabilized after 15 minutes for P. aeruginosa and A. baumannii PBP3, 30 minutes for E. coli PBP3 and A. baumannii PBP1a, and less than 1 minute for N. gonorrhoeae PBP2. […] The competition binding assay (80 μl final volume) was validated using beta-lactams and PBPs at final concentrations of: 1.5 μM for E. coli PBP3; 0.75 μM for P. aeruginosa PBP3; 1 μM for A. baumannii PBP1a; 0.2 μM for A. baumannii PBP3; and 0.25 μM for N. gonorrhoeae PBP2. Bocillin-FL was at 0.1 μM (0.05 μM with A. baumannii PBP1a) and beta-lactam concentrations ranged from 0-1,000 μM. E. coli PBP3 was incubated with increasing concentrations of ampicillin in a black 384-well microplate (Corning) for 30 minutes. P. aeruginosa PBP3 was incubated for 15 minutes with aztreonam, whereas A. baumannii PBP1a and PBP3 were incubated for 15 minutes with meropenem, and then Bocillin-FL was added followed immediately by the FP measurement for up to 60 minutes. […] The beta-lactam potency was reported as the concentration of beta-lactam required to reduce the amount of PBP bound-Bocillin-FL by 50% (EC50). […] The EC50 of aztreonam was determined to be <0.5 μM for P. aeruginosa PBP3. […] Binding assays for boronic acid PBP inhibitors were performed in an identical fashion for the respective PBPs.

[6] = test system: K. pneumoniae 848844; experiment: microbe, parasite or virus in culture; format: cell-based; details: Klebsiella pneumoniae, 848844, read-out: MIC K. pneumoniae 848844
[7] = test system: E. coli ATCC 25922; experiment: microbe, parasite or virus in culture; format: cell-based; details: Escherichia coli, ATCC25922, read-out: MIC E. coli 25922
[8] = molecular target: T2, PBP3 from Escherichia coli (K-12) (Escherichia coli, UniProt P0AD68); experiment: Bocillin-FL fluorescence polarization competition binding, E. coli PBP3
T2 construct: made in house
T2 sequence (P0AD68 1-577): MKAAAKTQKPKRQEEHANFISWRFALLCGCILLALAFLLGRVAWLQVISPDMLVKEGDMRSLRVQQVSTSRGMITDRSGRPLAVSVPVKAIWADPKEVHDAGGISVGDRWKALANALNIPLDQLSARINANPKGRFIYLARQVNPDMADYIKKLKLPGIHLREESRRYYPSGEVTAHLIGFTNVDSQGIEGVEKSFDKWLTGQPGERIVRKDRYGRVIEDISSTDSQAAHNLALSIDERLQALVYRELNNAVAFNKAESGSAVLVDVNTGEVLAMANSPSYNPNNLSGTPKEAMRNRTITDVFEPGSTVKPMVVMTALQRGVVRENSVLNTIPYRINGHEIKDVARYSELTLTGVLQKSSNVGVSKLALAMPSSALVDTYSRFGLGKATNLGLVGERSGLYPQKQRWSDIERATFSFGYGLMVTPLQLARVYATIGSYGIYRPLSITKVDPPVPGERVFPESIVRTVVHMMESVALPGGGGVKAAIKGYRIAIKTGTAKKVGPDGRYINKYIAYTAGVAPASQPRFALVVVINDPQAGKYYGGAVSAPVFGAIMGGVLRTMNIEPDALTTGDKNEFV
Description: as §1

[9] = test system: E. coli D22; experiment: microbe, parasite or virus in culture; format: cell-based; details: Escherichia coli, D22, read-out: MIC E. coli D22
[10] = test system: E. coli 901C; experiment: microbe, parasite or virus in culture; format: cell-based; details: Escherichia coli, read-out: MIC E. coli 901C
[11] = test system: E. coli AG100; experiment: microbe, parasite or virus in culture; format: cell-based; details: Escherichia coli, AG100, read-out: MIC E. coli AG100
[12] = test system: K. pneumoniae UMM; experiment: microbe, parasite or virus in culture; format: cell-based; details: Klebsiella pneumoniae, read-out: MIC K. pneumoniae UMM
[13] = test system: A. baumannii ATCC 19606; experiment: microbe, parasite or virus in culture; format: cell-based; details: Acinetobacter baumannii, ATCC19606, read-out: MIC, A. baumannii ATCC 19606
[14] = test system: P. aeruginosa ATCC 27853; experiment: microbe, parasite or virus in culture; format: cell-based; details: Pseudomonas aeruginosa, ATCC27853, read-out: MIC P. aeruginosa ATCC 27853
[15] = molecular target: T3, PBP1a from Acinetobacter baumannii (ATCC 19606) (Acinetobacter baumannii, UniProt A0ABX6CK30); experiment: Bocillin-FL fluorescence polarization competition binding, A. baumannii PBP1a
T3 sequence (A0ABX6CK30 1-851): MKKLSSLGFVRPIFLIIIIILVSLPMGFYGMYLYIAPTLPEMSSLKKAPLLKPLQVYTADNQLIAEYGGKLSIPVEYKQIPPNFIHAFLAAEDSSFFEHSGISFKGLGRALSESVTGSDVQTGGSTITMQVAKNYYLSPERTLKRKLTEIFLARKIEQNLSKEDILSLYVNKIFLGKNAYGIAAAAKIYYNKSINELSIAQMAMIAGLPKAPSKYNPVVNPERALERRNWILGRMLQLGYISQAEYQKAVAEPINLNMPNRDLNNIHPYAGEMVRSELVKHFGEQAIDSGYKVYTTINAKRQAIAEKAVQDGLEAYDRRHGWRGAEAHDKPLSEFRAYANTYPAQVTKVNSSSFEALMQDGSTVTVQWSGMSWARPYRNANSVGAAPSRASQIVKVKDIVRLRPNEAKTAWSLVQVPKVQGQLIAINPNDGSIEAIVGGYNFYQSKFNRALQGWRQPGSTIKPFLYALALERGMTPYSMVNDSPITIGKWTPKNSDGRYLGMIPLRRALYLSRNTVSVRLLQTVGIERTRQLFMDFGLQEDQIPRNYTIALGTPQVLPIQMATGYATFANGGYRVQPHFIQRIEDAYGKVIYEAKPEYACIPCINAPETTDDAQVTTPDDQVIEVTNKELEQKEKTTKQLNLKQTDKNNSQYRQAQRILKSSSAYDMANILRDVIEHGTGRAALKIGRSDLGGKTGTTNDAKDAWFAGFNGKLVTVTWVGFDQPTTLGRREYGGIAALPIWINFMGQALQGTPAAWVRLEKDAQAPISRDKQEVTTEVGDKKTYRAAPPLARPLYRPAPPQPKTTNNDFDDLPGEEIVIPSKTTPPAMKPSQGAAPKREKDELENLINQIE
Description: as §1

Row | SMILES | MIC [1] [µg/mL] | MIC [2] [µg/mL] | MIC [3] [µg/mL] | MIC [4] [µg/mL] | IC50 [5] [µM] | MIC [6] [µg/mL] | MIC [7] [µg/mL] | EC50 [8] [µM] | MIC [9] [µg/mL] | MIC [10] [µg/mL] | MIC [11] [µg/mL] | MIC [12] [µg/mL] | MIC [13] [µg/mL] | MIC [14] [µg/mL] | EC50 [15] [µM]
1 | O=C(N[C@H](C(=O)N[C@H]1Cc2cccc(C(=O)O)c2OB1O)c1ccc(P(=O)(O)O)cc1)c1cnc2ccnn2c1 (single isomer, unassigned) [Example 186] | 2 to 4 (≈ 3.54 to 7.08 µM) | > 128 | > 128 | > 128 | 10 to 50 | > 128 | > 128 | > 250 | > 128 | 8 to 16 (≈ 14.2 to 28.3 µM) | > 128 | > 128 | > 128 | > 128 | 
2 | C[C@@H](O)[C@H]1C(=O)N2C(C(=O)O)=C(S[C@@H]3CN[C@H](C(=O)N(C)C)C3)[C@H](C)[C@H]12 [meropenem, reference compound] |  |  |  |  |  |  |  |  |  |  |  |  |  |  | < 0.5
